One block for each compound: values may come before it.
Legend:
Format in all cases: biochemical
CD38 = assay: Hydrolase and cyclase activities of human and murine CD38
Method: (§1) The hydrolase activity of CD38 was measured according to a previous report ([de Oliveira et al., 2018]) with minor modifications. CD38 hydrolase activity was measured using 50 μM ε-NAD^+ as a substrate in hydrolase reaction buffer (250 mM sucrose, 40 mM Tris-HCl, pH 7.4). Briefly, cells or tissues were directly homogenized in blank reaction buffer on ice, and recombinant hCD38 was diluted in blank reaction buffer for subsequent assays. The tissue homogenates were centrifuged to collect the supernatant for enzyme assays. The loading volume of enzyme was 4–30 μL, the total volume of the reaction system was 3 mL. To detect enzyme inhibition, except when specified, the ligands were directly dissolved in hydrolase reaction buffer before pH adjustment, after which, the pH was immediately adjusted to 7.4. All reaction buffers, with or without ligands, were freshly prepared before each assay. For measurement of hydrolase activity, 3 mL reaction buffer containing enzyme, ε-NAD^+, and ligands at indicated concentrations was maintained at 37°C with constant stirring.
(§2) The cyclase activity of CD38 was measured as previously described ([Higashida et al., 1999]; [Jin et al., 2007]). CD38 cyclase activity was measured using 60 μM NGD as a substrate in cyclase reaction buffer (100 mM KCl, 10 μM CaCl2, and 50 mM Tris-HCl, pH 6.6). Tissues were cut into pieces and suspended in the buffer (5 mM MgCl2, 10 mM Tris-HCl, pH 7.3) at 4°C for 30 min. Then, the suspension was homogenized on ice, and the supernatant was collected after centrifugation. To collect the crude membrane fractions, the supernatant was centrifuged at 105,000×g for 30 min. The final pellet was resuspended in 10 mM Tris-HCl solution (pH 6.6) for cyclase assay. Homogenates of THP-1 or A549 cells, and recombinant hCD38 were used directly for cyclase assays. The loading volume of enzyme was 4–20 μL, the total volume of reaction system was 3 mL. To detect enzyme inhibition, except when specified, the ligands were directly dissolved in cyclase reaction buffer before pH adjustment, after which, the pH was immediately adjusted to 6.6. All reaction buffers, with or without ligands, were freshly prepared before each assay. For measurement of cyclase activity, 3 mL reaction buffer containing enzyme, NGD, and ligands at indicated concentrations was maintained at 37°C with constant stirring.
(§3) The reaction buffer for hydrolase or cyclase assays was excited at 300 nm, and fluorescence emission was measured every second at 410 nm by Shimazu RF-6000 spectrofluorometer. Hydrolase or cyclase activity was calculated from the linear portion of the time course by fitting a linear function to the data points recorded within 5 min.
Guanosine was dissolved in DMSO and diluted in the reaction buffer for subsequent assays.
For reversibility test, recombinant hCD38 was pre-incubated for 30 min in four conditions: (1) control reaction buffer; (2) in the presence of 100 μM substrate (ε-NAD^+ or NGD); (3) 500 μM sUA; (4) both substrate and sUA. Subsequently, the enzyme was diluted 100-fold in reaction buffer in the presence or absence of 500 μM sUA for activity assays using ε-NAD^+ or NGD. Naïve THP-1 and A549 cells were incubated with RPMI-1640 medium in the presence or absence of 500 μM sUA for 2 hr. The cells were collected and homogenized in the reaction buffer on ice with or without 500 μM sUA, samples were then diluted 100-fold in reaction buffer with or without 500 μM sUA for enzyme assay. Control group was not treated with sUA in all steps; sUA group was treated with sUA in each step; sUA release group was treated with sUA prior to dilution in sUA-free buffer for enzyme assays.

murine CD38 [1] = molecular target: T1, murine CD38 (Mus musculus, UniProt P56528); assay: CD38 hydrolase activity in tissues from WT mice; conditions: for Ki: WT mice, Figure 1E
T1 construct: from tissue; host or cells: WT ICR mouse tissues (brain, liver, lung, heart, kidney, spleen, ileum, skeletal muscle)
T1 sequence (P56528 1-304): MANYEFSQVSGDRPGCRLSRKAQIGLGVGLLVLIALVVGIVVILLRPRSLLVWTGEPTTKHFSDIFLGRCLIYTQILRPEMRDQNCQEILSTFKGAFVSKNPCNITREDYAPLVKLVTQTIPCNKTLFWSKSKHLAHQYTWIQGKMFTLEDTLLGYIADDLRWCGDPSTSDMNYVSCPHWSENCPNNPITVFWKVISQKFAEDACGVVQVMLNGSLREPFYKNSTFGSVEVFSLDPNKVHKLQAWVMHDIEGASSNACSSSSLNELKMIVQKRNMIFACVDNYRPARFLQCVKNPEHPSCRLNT
Method: as §1, §3

murine CD38 [2] = molecular target: T1, murine CD38; assay: CD38 cyclase activity in tissues from WT mice; conditions: for Ki: WT mice, Figure 1E
Method: as §2, §3

[3] = molecular target: T2, nicotinamide phosphoribosyltransferase (NAMPT) (Homo sapiens, UniProt P43490); assay: NAMPT activity (colorimetric kit); conditions: Figure 3—figure supplement 2A
T2 construct: purchased MBL CY-1251V2
Method: (§4) The activities of NAMPT and PARP were measured using commercial kits, HT Universal Colorimetric PARP Assay Kit, and CycLex NAMPT Colorimetric Assay Kit Ver.2. The solutions of ligands were freshly prepared (pH was adjusted to 7.4) and were immediately used for enzyme assays.

[4] = molecular target: T3, poly(ADP-ribose) polymerase (PARP) (Homo sapiens, UniProt P09874); assay: PARP activity (colorimetric kit); conditions: Figure 3—figure supplement 2C
T3 construct: purchased R&D Systems 4677-096-K
Method: as §4

[5] = lung tissues from WT mice, OA 0–5 mM

T3 sequence (P09874 whole entry): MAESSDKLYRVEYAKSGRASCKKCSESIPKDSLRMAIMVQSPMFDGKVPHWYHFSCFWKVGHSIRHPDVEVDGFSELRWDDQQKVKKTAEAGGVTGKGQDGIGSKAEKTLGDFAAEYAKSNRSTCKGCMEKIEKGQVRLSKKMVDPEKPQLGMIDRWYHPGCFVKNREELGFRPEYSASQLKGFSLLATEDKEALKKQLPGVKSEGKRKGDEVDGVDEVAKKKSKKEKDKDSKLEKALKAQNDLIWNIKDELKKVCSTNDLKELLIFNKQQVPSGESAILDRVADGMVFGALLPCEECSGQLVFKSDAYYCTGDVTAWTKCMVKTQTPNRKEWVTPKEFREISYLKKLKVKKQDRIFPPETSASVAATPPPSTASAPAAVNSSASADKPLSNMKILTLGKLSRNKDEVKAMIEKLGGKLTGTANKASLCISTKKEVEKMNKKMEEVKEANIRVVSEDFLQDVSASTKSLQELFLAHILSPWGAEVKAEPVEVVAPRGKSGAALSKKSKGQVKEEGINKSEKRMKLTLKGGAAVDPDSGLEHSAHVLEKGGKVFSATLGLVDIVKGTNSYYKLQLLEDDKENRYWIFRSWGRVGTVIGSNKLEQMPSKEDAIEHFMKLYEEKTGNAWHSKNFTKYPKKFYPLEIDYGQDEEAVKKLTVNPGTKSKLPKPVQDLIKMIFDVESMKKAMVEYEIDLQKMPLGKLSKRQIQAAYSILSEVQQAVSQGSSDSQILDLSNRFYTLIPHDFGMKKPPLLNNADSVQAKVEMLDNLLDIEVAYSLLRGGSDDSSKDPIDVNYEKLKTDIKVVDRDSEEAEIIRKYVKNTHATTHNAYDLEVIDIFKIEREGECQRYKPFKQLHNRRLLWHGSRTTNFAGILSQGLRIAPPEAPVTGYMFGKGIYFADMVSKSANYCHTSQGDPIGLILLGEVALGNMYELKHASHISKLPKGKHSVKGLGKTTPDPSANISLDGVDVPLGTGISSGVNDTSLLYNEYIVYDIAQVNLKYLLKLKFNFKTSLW
T2 sequence (P43490 whole entry): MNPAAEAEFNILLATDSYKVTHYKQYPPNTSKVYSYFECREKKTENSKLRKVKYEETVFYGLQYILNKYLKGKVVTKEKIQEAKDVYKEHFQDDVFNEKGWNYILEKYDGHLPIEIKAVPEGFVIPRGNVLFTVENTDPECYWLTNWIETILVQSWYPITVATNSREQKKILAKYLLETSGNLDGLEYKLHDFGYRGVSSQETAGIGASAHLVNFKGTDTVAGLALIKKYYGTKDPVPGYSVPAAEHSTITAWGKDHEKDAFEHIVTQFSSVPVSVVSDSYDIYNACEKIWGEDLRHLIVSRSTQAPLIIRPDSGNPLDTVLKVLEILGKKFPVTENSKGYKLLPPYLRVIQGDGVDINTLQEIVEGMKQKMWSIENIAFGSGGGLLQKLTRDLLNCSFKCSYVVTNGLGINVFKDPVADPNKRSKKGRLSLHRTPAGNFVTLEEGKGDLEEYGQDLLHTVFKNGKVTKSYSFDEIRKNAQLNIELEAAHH

- Effect on hydrolase and cyclase activities of human and murine CD38 (CD38; sUA precursors and metabolite, above physiological levels, Figure 2B, C and supplement 1A–C): hardly inhibited
Structure (SMILES): O=c1[nH]cnc2c1ncn2[C@@H]1O[C@H](CO)[C@@H](O)[C@H]1O [Inosine, inosine, reference compound]

- IC50 (murine CD38 [1]; [5]): 2.2 mM
- IC50 (murine CD38 [2]; [5]): 4.47 mM
Structure (SMILES): O=C(O)c1nc(=O)[nH]c(=O)[nH]1 [OA, oxonic acid, reference compound]

- Ki (murine CD38 [1]; Brain): 83.5 µM
- Ki (murine CD38 [1]; Heart): 80.6 µM
- Ki (murine CD38 [1]; Ileum): 79.9 µM
- Ki (murine CD38 [1]; Kidney): 84.7 µM
- Ki (murine CD38 [1]; Liver): 77.3 µM
- Ki (murine CD38 [1]; Lung): 82.5 µM
- Ki (murine CD38 [1]; Skeletal muscle): 83 µM
- Ki (murine CD38 [1]; Spleen): 70.5 µM
- Ki (murine CD38 [2]; Brain): 71.1 µM
- Ki (murine CD38 [2]; Heart): 70.9 µM
- Ki (murine CD38 [2]; Ileum): 72.1 µM
- Ki (murine CD38 [2]; Kidney): 78.2 µM
- Ki (murine CD38 [2]; Liver): 76.7 µM
- Ki (murine CD38 [2]; Lung): 77 µM
- Ki (murine CD38 [2]; Skeletal muscle): 93.3 µM
- Ki (murine CD38 [2]; Spleen): 78.1 µM
- Ki (CD38; span over all enzyme sources): 57.1 to 93.3 µM
- Effect on NAMPT activity [3]: without affecting the activities
- Effect on PARP activity [4]: without affecting the activities
Structure (SMILES): O=c1[nH]c(=O)c2[nH]c(=O)[nH]c2[nH]1 [sUA, uric acid]

From publication PMC11554305, “Functional identification of soluble uric acid as an endogenous inhibitor of CD38” (eLife, 2024)
